Two substances from patent US10072262B2, “RIG-I ligands and methods for producing them” (RHEINISCHE FRIEDRICH-WILHELMS-UNIVERSITÄT BONN, priority 2012, dated 2018) can be followed below.

The target in this data set is T1, RIG-I (Homo sapiens, UniProt O95786).
T1 construct: endogenous in cells
T1 sequence (O95786 1-925): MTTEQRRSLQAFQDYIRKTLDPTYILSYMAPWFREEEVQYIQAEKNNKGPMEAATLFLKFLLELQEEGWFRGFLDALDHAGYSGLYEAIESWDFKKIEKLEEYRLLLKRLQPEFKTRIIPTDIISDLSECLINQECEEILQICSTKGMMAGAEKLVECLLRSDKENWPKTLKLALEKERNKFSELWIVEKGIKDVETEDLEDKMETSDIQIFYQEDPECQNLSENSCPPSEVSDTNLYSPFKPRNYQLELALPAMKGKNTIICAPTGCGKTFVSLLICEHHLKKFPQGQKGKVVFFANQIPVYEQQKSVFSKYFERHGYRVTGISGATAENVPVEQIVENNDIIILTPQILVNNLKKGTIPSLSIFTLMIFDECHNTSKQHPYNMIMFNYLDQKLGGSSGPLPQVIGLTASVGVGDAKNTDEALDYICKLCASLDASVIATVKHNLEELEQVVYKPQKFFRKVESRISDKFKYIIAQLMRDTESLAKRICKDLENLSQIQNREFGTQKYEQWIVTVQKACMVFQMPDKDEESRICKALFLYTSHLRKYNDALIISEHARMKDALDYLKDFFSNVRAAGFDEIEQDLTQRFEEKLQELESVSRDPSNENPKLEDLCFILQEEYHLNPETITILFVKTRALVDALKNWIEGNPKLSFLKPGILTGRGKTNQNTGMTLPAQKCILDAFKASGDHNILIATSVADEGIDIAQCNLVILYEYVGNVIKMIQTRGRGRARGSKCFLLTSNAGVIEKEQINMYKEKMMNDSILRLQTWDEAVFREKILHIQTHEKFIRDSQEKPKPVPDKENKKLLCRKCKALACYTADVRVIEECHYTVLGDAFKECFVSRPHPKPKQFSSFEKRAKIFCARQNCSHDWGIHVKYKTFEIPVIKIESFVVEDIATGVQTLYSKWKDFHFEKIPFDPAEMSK
The data set can be described thus: RIG-I stimulation: chloroquine-blocked PBMCs, duplex lipofection, IFNa ELISA at 20 h. In kind it is cell-based. The following applies: FIG. 7B titration. The method, then:
A screen of 2′-O-methylations resolved positions to introduce RIG-I selectivity (FIG. 5). For the sense (A) and antisense (B) strand of OH-GFP2 a full 2′-O-methylation screen was performed. Each position was modified individually by 2′-O-methylation and used for stimulation of RIG-I, TLR7 or TLR8. For stimulation of RIG-I, peripheral blood mononuclear cells (PBMCs) were blocked with Chloroquine and stimulated by lipofection of the duplex. IFNa was measured 20 h post stimulation by ELISA. For TLR7 and TLR8 only the relevant single-strand was screened for stimulatory capacity and checked on unblocked PBMCs. The single-strands were transfected by complexation with poly-L-Arginine and 20 h post transfection for TLR7 activation IFNa, for TLR8 activation IL12p70 was measured by ELISA. […]
FIG. 6: (A) Methylations inert for RIG-I activation were combined in the antisense strand and the resulting duplex was used for stimulation of chloroquine-blocked PBMCs at a concentration of 0.8 μg/ml. IFNa was measured by ELISA at 20 h post stimulation. […]
FIG. 7: (A) PBMCs were blocked with Chloroquine and stimulated with duplexes at a concentration of 0.8 μg/ml. 20 h post stimulation IFNa was measured by ELISA. […] 20 h post stimulation IFNa was determined in the supernatant by ELISA. […]

Consider “3P-GFP2: ppp-GACGCUGACCCUGAAGUUCAUCUU / CUGCGACUGGGACUUCAAGUAGAA; unmodified triphosphate duplex (5'-triphosphate, chemistry not fully specified; one strand is listed 3' to 5')”, for which the “IFNa corresponding to 100%” value (50 nM, chloroquine-blocked PBMCs, Lipofectamine, 20 h, 4 donors) amounted to 16044 pg/mL.

As for “s15 PTO/as3 PTO: G*A*C GCUGACCCUGAAmGUUCAUC U U / C U GmCGACUGGGACUU CAAGUAG*A*A; * = PTO, Nm = 2′-OCH3 (sense GACGCUGACCCUGAAGUUCAUCUU; antisense CUGCGACUGGGACUUCAAGUAGAA; phosphorothioate and 2'-O-methyl modifications, chemistry not fully specified; one strand is listed 3' to 5')”, the “duplex immune activity (effect of 5′-PTO modification), in words” value (compared with s15/as3) was “maximum increase in activity”.
